Values joined by “and” are separate entries in the source; they are usually repeats but may differ in a detail not shown here. Identical values can stand only once. Starred links: 1 amine or outer side, 2 acyl side, 3 side chain; linkers in the order of their positions; H or OH if unused. Positions of bridges follow the written chain, without caps; N, C: chain ends. Non-standard residues stand in square brackets, D forms with d. Residues, ends and D or L forms follow the SMILES beside them. Phe(4-F) = N[C@@H](Cc1ccc(F)cc1)C(=O)O; X1 = CCCCCCC[C@H](N[*:1])C(=O)[*:2]; Nle = CCCC[C@H](N)C(=O)O; X2 = C(C[*:1])C[*:2]; βAla = NCCC(=O)O
What was measured:
Type in all cases: cell-based, human
A427 cells = assay: Cell proliferation assay (CellTiter-Glo, 72 h); conditions: A427 (G12D), peptide 30 µM, n = 4, ± SEM
Protocol: (§1) A427 (ATCC HTB-53), A549 (ATCC CCL-185), H1975 (ATCC CRL-5908), PANC-1 (ATCC CRL-1469), MIA PaCa-2 (ATCC CRL-1420), and Capan-1 (ATCC HTB-79) cells were purchased from ATCC, and each cell was cultured in medium supplemented with 10% fetal bovine serum (FBS), according to the protocol recommended by the manufacture.
(§2) The effect of peptides on cell proliferation of A427, A549, H1975, PANC-1, MIA PaCa-2, and Capan-1 cells was determined by 72 h exposure to peptides. Cells were seeded at 1000 cells/well in 96-well tissue culture plates in each growth media and allowed to adhere overnight on day 0. Peptides were solved in DMSO and then diluted with each growth media for a constant final DMSO concentration of 0.5%. Media in the wells were removed and replaced with diluted peptide solutions, and cells were incubated for 3 days. During the incubation, medium containing the peptides was replaced every day. Relative cell numbers were estimated using CellTiter-Glo assay kit (G7570, Promega, WI, USA) according to the manufacturer’s instructions. Luminescence was detected using SpectraMax i3x (MOLECULAR DEVICES, CA, USA). Cell proliferation rate (%) was calculated based on cell numbers at day 0 as 0% and at day 3 without peptide treatment as 100%.

A549 cells = assay: Cell proliferation assay (CellTiter-Glo, 72 h); conditions: A549 (G12S), peptide 30 µM, n = 4, ± SEM
Protocol: as §1, §2

Capan-1 cells = assay: Cell proliferation assay (CellTiter-Glo, 72 h); conditions: Capan-1 (G12V), peptide 30 µM, n = 4, ± SEM
Protocol: as §1, §2

H1975 cells = assay: Cell proliferation assay (CellTiter-Glo, 72 h); conditions: H1975 (WT), peptide 30 µM, n = 4, ± SEM
Protocol: as §1, §2

PANC-1 cells = assay: Cell proliferation assay (CellTiter-Glo, 72 h); conditions: PANC-1 (G12D), peptide 30 µM, n = 4, ± SEM
Protocol: as §1, §2

[1] = tested on: phosphorylation of ERK in A427 cells; assay: Erk-phosphorylation assay (Phospho-ERK1/ERK2 ELISA); conditions: A427, peptide 30 µM, n = 4, ± SEM
Protocol: as §1
(§3) For evaluation of the effect of peptides on Ras–ERK pathways, phosphorylation of ERK was measured by Phospho-ERK1 (T202/Y204)/ERK2 (T185/Y187) DuoSet IC ELISA (DYC1018B-2, R&D SYSTEMS, MN, USA) according to the protocol supplied by the manufacturer. After 16 h serum starvation, cells were treated with peptides diluted in FBS-free medium for 1 h, and then treated with peptides diluted in FBS-containing medium for an additional 1 h. Phosphorylation rate of ERK (%) was calculated based on no serum stimulation as 0% and serum stimulation without peptide treatment as 100%.

[2] = tested on: phosphorylation of ERK in PANC-1 cells; assay: as above; conditions: PANC-1, peptide 30 µM, n = 4, ± SEM
Protocol: as §1, §3

CCCCCCC[C@@H]1NC(=O)[C@@H]2CSCCCSC[C@@H](NC(=O)[C@H](Cc3c[nH]c4ccccc34)NC(=O)[C@@H]3CCCN3C(=O)[C@H](CC(=O)O)NC(=O)[C@H](Cc3ccc(F)cc3)NC(=O)[C@H](CO)NC1=O)C(=O)NCCC(=O)N1CCC[C@H]1C(=O)N[C@@H](CCCC)C(=O)N2 [KS-58, c[βAla-Pro-Nle-c(Cys-Anon-Ser-4fF-Asp-Pro-Trp-^DCys)]] (cyclo([βAla]P[Nle]C[X1]S[Phe(4-F)]DPW[dC]); linker 4-11 via X2)
Cell proliferation (%) (A427 cells): 21.1% and 21.1 ± 5.5% | Cell proliferation (%) (A549 cells): 81.3 ± 1.5% | Cell proliferation (%) (Capan-1 cells): 94.9 ± 2.2% | Cell proliferation (%) (H1975 cells): 92.7 ± 0.3% | Cell proliferation (%) (PANC-1 cells): 50.1% and 50.1 ± 4.1% | pERK (%) [1]: 26.0% and 26.0 ± 6.0% | pERK (%) [2]: 57.6% and 57.6 ± 7.6%

Reference: article PMC7730438, “Generation of KS-58 as the first K-Ras(G12D)-inhibitory peptide presenting anti-cancer activity in vivo” (Scientific Reports, 2020)
